Experiments:
[1] = tested on: HCC1143; experiment: normalised viability (% of control), CellTiter-Blue; higher = more viable cells (about 100 = DMSO control); details: incubation time: 72 h
Outline: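 Normalised viability is given for a single listed concentration of the series. In 384-well plates, breast cancer cell lines were incubated 72 h with compound, then read with CellTiter-Blue (2 h, 37 °C) at 560/590 nm. Per-plate scaling set vehicle to 100 and a positive kill control to 0, with Z'-factor quality control.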

[2] = tested on: DU-4475; details: 72 h
Outline: (§1)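 Each 384-well plate was pre-loaded with compound dissolved in 5 µl medium, received breast cancer cells in 20 µl suspension, and was incubated 72 h. A 2.5 µl addition of CellTiter-Blue for 2 h at 37 °C was followed by a fluorescence read at 560/590 nm. Data were normalised per plate to vehicle and a positive kill control and checked by Z'-factor. EC50 was fitted from the percent-inhibition dose-response curve, censored at the highest concentration, excluding rows with a drug sensitivity score of zero.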

[3] = tested on: CAL-85-1; details: 72 h
Outline: as §1

[4] = tested on: CAL-51; details: 72 h
Outline: as §1

[5] = tested on: HDQ-P1; details: 72 h
Outline: as §1

[6] = tested on: CAL-148; details: 72 h
Outline: as §1

[7] = tested on: MDA-MB-453; details: 72 h
Outline: as §1

Compound | EC50, CellTiter-Blue viability [7] | normalised viability ([1]; 100 nM) | EC50, CellTiter-Blue viability [2] | EC50, CellTiter-Blue viability [3] | EC50, CellTiter-Blue viability [4] | EC50, CellTiter-Blue viability [5] | EC50, CellTiter-Blue viability [6] | normalised viability ([1]; 10 nM) | normalised viability ([1]; 1 nM)
COc1ccc(-c2cc3c(C)nc(N)nc3n([C@H]3CC[C@H](OCCO)CC3)c2=O)cn1 | 72.8 nM | 92.8% | 610 nM | 301 nM | 140 nM | 66.9 nM | 246 nM |  | 
Cn1cc(CNCC2CCN(c3ncc(C(=O)NO)cn3)CC2)c2ccccc21 | 4.36 nM |  | 14.3 nM | 17.2 nM | 62.1 nM | 18.2 nM | 11.9 nM | 64.8% | 
O=C(NC[C@H](O)CO)c1ccncc1Nc1ccc(I)cc1F | 4980 nM | 66% | 11.7 nM | 1660 nM | 663 nM | 161 nM | 9.85 nM |  | 
CCC/C=C/C=C/C(=O)O[C@H]1/C(=C/C(=O)OC)C[C@H]2C[C@H]([C@@H](C)O)OC(=O)C[C@H](O)C[C@@H]3C[C@H](OC(C)=O)C(C)(C)[C@](O)(C[C@@H]4C/C(=C/C(=O)OC)C[C@H](/C=C/C(C)(C)[C@]1(O)O2)O4)O3 [Bryostatin 1] |  |  |  | > 100 nM |  |  | > 100 nM |  | 81.2%
CO[C@@H](C(=O)N1Cc2[nH]nc(NC(=O)c3ccc(N4CCN(C)CC4)cc3)c2C1)c1ccccc1 [Danusertib] | 40.9 nM | 87.4% | 538 nM | 435 nM | 348 nM | 427 nM | 21.6 nM |  | 
Cc1nc(Nc2ncc(C(=O)Nc3c(C)cccc3Cl)s2)cc(N2CCN(CCO)CC2)n1 [Dasatinib] |  |  |  | 83.9 nM | 22.2 nM | 12.4 nM |  |  | 
C[C@]12O[C@H](C[C@]1(O)CO)n1c3ccccc3c3c4c(c5c6ccccc6n2c5c31)CNC4=O [Lestaurtinib] | 174 nM |  | 186 nM | 284 nM | 330 nM |  |  | 113% | 
O=C1c2c(O)ccc(O)c2C(=O)c2c(NCCNCCO)ccc(NCCNCCO)c21 [Mitoxantrone] | 539 nM |  | 8.91 nM | 182 nM | 10.7 nM | 58.6 nM | 26.2 nM | 66.9% | 
Nc1ccccc1NC(=O)c1ccc(CNc2nccc(-c3cccnc3)n2)cc1 [Mocetinostat] | 588 nM | 81.5% | 757 nM | 1530 nM | 3050 nM | 9490 nM | 1790 nM |  | 
CC[C@@]1(O)C(=O)OCc2c1cc1n(c2=O)Cc2cc3c(CN(C)C)c(O)ccc3nc2-1 [Topotecan] | 457 nM |  | 118 nM | 613 nM | 362 nM | > 1000 nM | 63.7 nM | 79.7% | 

More lines, main results first:

EC50, CellTiter-Blue viability [7] | Compound | normalised viability ([1]; 100 nM) | EC50, CellTiter-Blue viability [2] | EC50, CellTiter-Blue viability [3] | EC50, CellTiter-Blue viability [4] | EC50, CellTiter-Blue viability [5] | EC50, CellTiter-Blue viability [6] | normalised viability ([1]; 10 nM) | normalised viability ([1]; 1 nM)
245 nM | O=C(Nc1c[nH]nc1-c1nc2ccc(CN3CCOCC3)cc2[nH]1)NC1CC1 [AT9283] | 72.8% | 109 nM | 901 nM | 555 nM | 771 nM | 1370 nM |  | 
310 nM | COc1cc(CCc2cc(NC(=O)c3ccc(N4CC(C)NC(C)C4)cc3)n[nH]2)cc(OC)c1 (configuration not stated) [AZD4547] |  | 536 nM | 529 nM | 548 nM |  | 632 nM | 86.9% | 
212 nM | CS(=O)(=O)N1CCN(Cc2cc3nc(-c4cccc5[nH]ncc45)nc(N4CCOCC4)c3s2)CC1 [GDC-0941] | 81.9% | 5650 nM | 1070 nM | 569 nM | 156 nM | 960 nM |  | 
98.9 nM | Cc1c(CN2CCN(C(=O)[C@H](C)O)CC2)sc2c(N3CCOCC3)nc(-c3cnc(N)nc3)nc12 [GDC-0980] | 71.5% | 734 nM | 347 nM | 198 nM | 139 nM | 306 nM |  | 
